According to patent US20260250318A1, “COMPOSITIONS AND METHODS FOR CROSSING THE BLOOD BRAIN BARRIER” (VOYAGER THERAPEUTICS, INC., priority 2022, published 2026):

Legend:
brain = test: Matured TTM-001 and TTM-002 variants, NGS enrichment in mouse brain; type: in vivo, mice; conditions: relative to AAV9 control
[1] = test system: brains, heart, liver, muscle, and DRG of the NHPs; test: Maturation of TTM-001 and TTM-002 capsids, NGS enrichment in NHP tissues; type: in vivo; conditions: relative to AAV9 control
Method in brief: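 Variants carry mutations within and flanking the loop IV peptide insert: positions 450–466 were triplet-randomized, while positions 449–466 received low-frequency point mutations. The combined pool went into two NHPs, and each peptide was scored by NGS enrichment ratio against AAV9.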

[2] = NGS fold-enrichment of matured AAV capsid variants, NHP brain, RNA
[3] = NGS fold-enrichment, brain of mice
[4] = NGS fold-enrichment, DRG of NHPs
[5] = NGS fold-enrichment, RNA, brain of NHPs
[6] = NGS fold-enrichment, heart of NHPs
[7] = NGS fold-enrichment, liver DNA of NHPs
[8] = NGS fold-enrichment, liver RNA of NHPs
[9] = NGS fold-enrichment, muscle of NHPs

| Sequence | Fold Enrichment relative to AAV9, Brain (Mouse) (brain; mouse brain) | Fold Enrichment relative to AAV9, Brain (NHP) [1, 2] | Fold Enrichment relative to AAV9, DRG (NHP) ([1]; NHP DRG) | Fold Enrichment relative to AAV9, Heart (NHP) ([1]; NHP heart) | Fold Enrichment relative to AAV9, Liver DNA (NHP) ([1]; NHP liver, DNA) | Fold Enrichment relative to AAV9, Liver RNA (NHP) ([1]; NHP liver, RNA) | Fold Enrichment relative to AAV9, Muscle (NHP) ([1]; NHP muscle) | other results |
| --- | --- | --- | --- | --- | --- | --- | --- | --- |
| KTINGSGSPHSKAQPART | 127.301 fold | 55.513 fold | 0.000 fold | 0.000 fold | 0.991 fold | 1.294 fold | 0.328 fold | – |
| KTINGSGSPHSKAQPLGT | 68.656 fold | 53.049 fold | 0.015 fold | 0.004 fold | 0.222 fold | 0.515 fold | 0.001 fold | – |
| KTINGSGSPHSKAQPPAT | – | – | – | – | – | – | – | Fold Enrichment relative to AAV9, Brain (Mouse) (brain; [3]): 117.453 fold; Fold Enrichment relative to AAV9, DRG (NHP) [1, 4]: 0.048 fold; Fold Enrichment relative to AAV9, Brain (NHP) [1, 5]: 63.510 fold; Fold Enrichment relative to AAV9, Heart (NHP) [1, 6]: 0.030 fold; Fold Enrichment relative to AAV9, Liver DNA (NHP) [1, 7]: 0.302 fold; Fold Enrichment relative to AAV9, Liver RNA (NHP) [1, 8]: 0.126 fold; Fold Enrichment relative to AAV9, Muscle (NHP) [1, 9]: 0.031 fold |
| KTINGSGSPHSKAQRDIT | 88.122 fold | 52.415 fold | 0.098 fold | 0.000 fold | 0.605 fold | 1.784 fold | 0.008 fold | – |
| KTINGSGSPHSKAQRDQT | 102.317 fold | 51.897 fold | 0.069 fold | 0.014 fold | 0.554 fold | 0.867 fold | 0.040 fold | – |
| KTINGSGSPHSKAQREMT | 70.961 fold | 51.076 fold | 0.000 fold | 24.900 fold | 0.476 fold | 1.564 fold | 143.49 fold | – |
| KTINGSGSPHSKAQRMNT | 97.975 fold | 50.686 fold | 0.000 fold | 108.747 fold | 0.264 fold | 0.943 fold | 0.019 fold | – |
| KTINGSGSPHSKAQRMST | 53.414 fold | 58.435 fold | 0.192 fold | 0.037 fold | 0.882 fold | 1.707 fold | 0.000 fold | – |
| KTINGSGSPHSKAQRTCT | 90.146 fold | 57.863 fold | 0.000 fold | 0.140 fold | 1.716 fold | 1.855 fold | 0.129 fold | – |
| KTINGSGSPHSKAQRTMT | – | – | – | – | – | – | – | Fold Enrichment relative to AAV9, Brain (Mouse) (brain; [3]): 100.248 fold; Fold Enrichment relative to AAV9, Brain (Mouse) (brain; NGS fold-enrichment, mouse brain): 100.248 fold; Fold Enrichment relative to AAV9, Brain (NHP) ([1]; NGS fold-enrichment of RNA, NHP brain): 80.388 fold; Fold Enrichment relative to AAV9, DRG (NHP) [1, 4]: 0.000 fold; Fold Enrichment relative to AAV9, DRG (NHP) ([1]; NGS fold-enrichment, NHP DRG): 0.000 fold; Fold Enrichment relative to AAV9, Heart (NHP) ([1]; NGS fold-enrichment, NHP heart): 0.022 fold; Fold Enrichment relative to AAV9, Liver DNA (NHP) ([1]; NGS fold-enrichment, NHP liver DNA): 1.025 fold; Fold Enrichment relative to AAV9, Liver RNA (NHP) ([1]; NGS fold-enrichment, NHP liver RNA): 1.812 fold; Fold Enrichment relative to AAV9, Muscle (NHP) ([1]; NGS fold-enrichment, NHP muscle): 0.170 fold; Fold Enrichment relative to AAV9, Brain (NHP) [1, 5]: 80.388 fold; Fold Enrichment relative to AAV9, Heart (NHP) [1, 6]: 0.022 fold; Fold Enrichment relative to AAV9, Liver DNA (NHP) [1, 7]: 1.025 fold; Fold Enrichment relative to AAV9, Liver RNA (NHP) [1, 8]: 1.812 fold; Fold Enrichment relative to AAV9, Muscle (NHP) [1, 9]: 0.170 fold |
| KTINGSGSPHSKAQSAHT | 79.498 fold | 51.569 fold | 0.068 fold | 0.070 fold | 0.249 fold | 0.589 fold | 0.000 fold | – |
